Where a SMILES comes first, the peptide text is derived from it. [ ]: non-standard residue; d: D form. The star is where a group is joined. pNA = O=[N+]([O-])c1ccc(N*)cc1; Tos = Cc1ccc(S(=O)(=O)*)cc1
Columns and labels:
plasmin (pig) = plasmin (pig) (Sus scrofa, UniProt P06867); assay: Km, Vmax and Vmax/Km of substrates for plasmin (pig); assay type: biochemical, Porcine (pig); conditions: for Vmax (× 10^7): 405 nm; for Vmax (× 10^-7): TABLE 2, CHA substrates, plasmin (pig), 2,6-xylenol 615 nm
Description: The substrates produced by the above examples were used in the measurement of plasmin as follows: The principle of this measurement comprises quantitatively analyzing the decomposition product p-nitroaniline or 3-carboxy-4-hydroxyaniline produced by the enzymatic hydrolysis, by measuring the absorbance (O.D.) directly at 405 nm in the case of p-nitroaniline and, in the case of the 3-carboxy-4-hydroxyaniline at 615 nm after condensing it with 2,6-xylenol in the presence of an oxidant to develop a color.
For the measurements of these constants, the following method is adopted:
The enzyme and the substrate are mixed in a buffer solution and subjected to the hydrolysis for 30 seconds. The concentration of the substrate [S] is changed and the enzyme concentration is maintained constant. By measuring the absorbance (O.D.), the initial velocity of the hydrolysis can be determined. Where 1/V is plotted as a function of 1/[S], there is obtained a Lineweaver and Burk's linea from which graph the Vmax and Km can be determined.

Thrombin (TH) = Thrombin (TH) (Bos taurus, UniProt P00735); assay type: biochemical, Cow; conditions: pH 8.4, 37° C., 10 minutes, 1.0 NIH/ml; for Selectivity TH, absorbance (O.D.) at 405 nm: TABLE 3, PNA substrates, So = 0.54 mmole/l; for Selectivity TH, absorbance (O.D.) at 645 nm: TABLE 4, CHA substrates, So = 0.54
Protocol: (§1) The specificities of the novelly synthesized substrates were tested by reacting them with various enzymes respectively.
(§2) (1) Substrate solution concentration: 35 mmole/liter H2 O
(§3) (2) Buffer: Tris-hydrochloric acid buffer 50 mmole/l, NaCl 150 mmole/l (0.875%) was employed, and the pH for reaction was as follows depending on the enzyme.
(§4) 2,6-Xylenol 7.0 mmole+NaIO4 1.5 mmole/0.2N KOH
(§5) 0.5 ml of the buffer solution and 0.05 ml of the enzyme reagent were taken into a silicon-treated hard glass test tube or a plastic test tube, and preheated in a constant temperature bath at 37° C. for 5 minutes. Thereafter, 0.1 ml of the substrate solution was added to effect the enzymatic reaction at 37° C. for 10 minutes. Exactly after 10 minutes, 2.5 ml of the reaction terminating solution or the terminating and color developing reagent solution was added to terminate the enzymatic reaction, and after allowing to stand at 25° C. for 10 minutes, the absorbance at 405 nm or 645 nm was measured, in which [drawing 49]

Plasmin (PL) = Plasmin (PL) (Sus scrofa, UniProt P06867); assay type: biochemical, Pig; conditions: pH 7.4, 37° C., 10 minutes, 0.32 CU/ml; for Selectivity PL, absorbance (O.D.) at 405 nm: TABLE 3, PNA substrates, So = 0.54 mmole/l; for Selectivity PL, absorbance (O.D.) at 645 nm: TABLE 4, CHA substrates, So = 0.54
Protocol: as §2, §3
Plasmin Pig Sigma (U.S.A.)
as §5

Kallikrein (KL) = Kallikrein (KL) (Sus scrofa, UniProt P00752); assay type: biochemical, Pig; conditions: pH 7.9, 37° C., 10 minutes, 1.0 BAEE-U/ml; for Selectivity KL, absorbance (O.D.) at 405 nm: TABLE 3, PNA substrates, So = 0.54 mmole/l; for Selectivity KL, absorbance (O.D.) at 645 nm: TABLE 4, CHA substrates, So = 0.54
Protocol: as §1, §2, §3, §4, §5

Factor-Xa (FXa) = Factor-Xa (FXa) (Bos taurus, UniProt P00743); assay type: biochemical, Cow; conditions: pH 8.4, 37° C., 10 minutes, 0.4 U/ml; for Selectivity FXa, absorbance (O.D.) at 405 nm: TABLE 3, PNA substrates, So = 0.54 mmole/l; for Selectivity FXa, absorbance (O.D.) at 645 nm: TABLE 4, CHA substrates, So = 0.54
Protocol: as §1, §2, §3, §4, §5

Urokinase (UK) = Urokinase (UK) (Homo sapiens, UniProt P00749); assay type: biochemical; conditions: pH 8.2, 37° C., 10 minutes, 1000 IU/ml; for Selectivity UK, absorbance (O.D.) at 405 nm: TABLE 3, PNA substrates, So = 0.54 mmole/l; for Selectivity UK, absorbance (O.D.) at 645 nm: TABLE 4, CHA substrates, So = 0.54
Protocol: as §1, §2, §3, §4, §5

[1] = TABLE 1, PNA substrates, plasmin (pig)
[2] = TABLE 1, V/Km of each sample divided by that of S2251
[3] = TABLE 2, V/Km of each sample divided by that of S2251 (so in the source)

Chain of Factor-Xa (FXa) (P00743 41-180): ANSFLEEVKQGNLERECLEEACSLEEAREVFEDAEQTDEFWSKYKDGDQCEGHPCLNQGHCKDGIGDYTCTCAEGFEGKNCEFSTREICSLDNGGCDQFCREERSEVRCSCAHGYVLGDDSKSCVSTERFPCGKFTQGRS
Chain of Factor-Xa (FXa) (P00743 234-492): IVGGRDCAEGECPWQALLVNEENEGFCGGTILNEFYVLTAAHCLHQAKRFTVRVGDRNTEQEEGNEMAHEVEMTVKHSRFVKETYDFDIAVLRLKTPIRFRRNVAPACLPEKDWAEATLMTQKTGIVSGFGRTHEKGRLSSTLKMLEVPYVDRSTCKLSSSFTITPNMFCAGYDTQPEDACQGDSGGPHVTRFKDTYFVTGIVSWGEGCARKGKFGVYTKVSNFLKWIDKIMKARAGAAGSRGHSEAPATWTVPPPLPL
Chain of Plasmin (PL) (P06867 97-809): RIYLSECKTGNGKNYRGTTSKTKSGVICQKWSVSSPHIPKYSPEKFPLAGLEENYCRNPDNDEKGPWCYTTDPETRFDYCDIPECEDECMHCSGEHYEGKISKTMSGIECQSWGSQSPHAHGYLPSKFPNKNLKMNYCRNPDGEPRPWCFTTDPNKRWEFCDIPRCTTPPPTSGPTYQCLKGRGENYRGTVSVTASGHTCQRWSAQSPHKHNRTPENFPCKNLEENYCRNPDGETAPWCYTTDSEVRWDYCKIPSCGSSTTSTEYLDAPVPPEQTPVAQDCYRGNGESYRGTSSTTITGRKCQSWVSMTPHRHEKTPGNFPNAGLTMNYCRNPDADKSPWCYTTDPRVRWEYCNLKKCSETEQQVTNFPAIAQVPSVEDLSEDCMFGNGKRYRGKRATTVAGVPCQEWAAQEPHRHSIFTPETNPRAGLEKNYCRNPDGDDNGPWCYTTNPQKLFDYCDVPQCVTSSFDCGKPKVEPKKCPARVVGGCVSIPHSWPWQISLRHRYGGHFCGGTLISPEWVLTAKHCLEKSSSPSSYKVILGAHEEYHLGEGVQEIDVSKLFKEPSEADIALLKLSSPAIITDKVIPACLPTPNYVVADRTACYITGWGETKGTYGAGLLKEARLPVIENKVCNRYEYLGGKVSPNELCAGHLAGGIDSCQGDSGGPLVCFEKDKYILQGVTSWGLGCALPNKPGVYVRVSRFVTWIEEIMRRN
Chain of plasmin (pig) (P06867 97-809): as above
Chain of Kallikrein (KL) (P00752 8-246): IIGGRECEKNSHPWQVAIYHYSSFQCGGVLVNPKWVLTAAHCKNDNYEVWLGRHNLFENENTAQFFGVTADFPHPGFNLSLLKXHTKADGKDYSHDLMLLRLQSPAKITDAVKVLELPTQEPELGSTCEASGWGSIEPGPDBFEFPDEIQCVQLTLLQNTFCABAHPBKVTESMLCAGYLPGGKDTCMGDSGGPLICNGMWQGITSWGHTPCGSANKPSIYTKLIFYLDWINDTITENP
Chain of Thrombin (TH) (P00735 44-625): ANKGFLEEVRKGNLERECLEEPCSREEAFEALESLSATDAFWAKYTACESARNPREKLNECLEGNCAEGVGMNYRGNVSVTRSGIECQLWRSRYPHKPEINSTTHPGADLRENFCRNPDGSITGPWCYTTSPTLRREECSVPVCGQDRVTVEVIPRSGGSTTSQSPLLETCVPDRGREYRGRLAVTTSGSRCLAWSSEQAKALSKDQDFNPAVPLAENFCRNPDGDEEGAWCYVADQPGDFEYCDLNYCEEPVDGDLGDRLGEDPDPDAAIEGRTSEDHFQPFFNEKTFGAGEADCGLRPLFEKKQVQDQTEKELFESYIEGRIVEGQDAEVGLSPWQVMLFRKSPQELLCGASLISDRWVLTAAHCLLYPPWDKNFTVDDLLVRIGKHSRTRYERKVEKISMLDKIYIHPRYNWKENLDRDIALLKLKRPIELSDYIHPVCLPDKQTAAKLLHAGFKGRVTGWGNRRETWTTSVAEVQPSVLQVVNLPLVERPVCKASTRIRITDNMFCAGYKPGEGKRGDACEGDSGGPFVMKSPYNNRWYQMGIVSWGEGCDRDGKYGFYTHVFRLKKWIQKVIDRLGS

SMILES	Vmax (× 10^7) (plasmin (pig); [1])	Relative ratio (plasmin (pig); [2])	Selectivity TH, absorbance (O.D.) at 405 nm (Thrombin (TH))	Selectivity PL, absorbance (O.D.) at 405 nm (Plasmin (PL))	Selectivity KL, absorbance (O.D.) at 405 nm (Kallikrein (KL))	Selectivity FXa, absorbance (O.D.) at 405 nm (Factor-Xa (FXa))	Selectivity UK, absorbance (O.D.) at 405 nm (Urokinase (UK))	Vmax (× 10^-7) (plasmin (pig))	Relative ratio (plasmin (pig); [3])	Selectivity TH, absorbance (O.D.) at 645 nm (Thrombin (TH))	Selectivity PL, absorbance (O.D.) at 645 nm (Plasmin (PL))	Selectivity KL, absorbance (O.D.) at 645 nm (Kallikrein (KL))	Selectivity FXa, absorbance (O.D.) at 645 nm (Factor-Xa (FXa))	Selectivity UK, absorbance (O.D.) at 645 nm (Urokinase (UK))	Vmax (× 10^-6) [mole/min/Cu] (plasmin (pig); Porcine Plasmin, comparison table in description)	V/Km (× 10^-3) (plasmin (pig); [1])
Cc1ccc(S(=O)(=O)NCCCC[C@@H](N)C(=O)N[C@@H](CC(C)C)C(=O)N[C@@H](CCCCN)C(=O)Nc2ccc([N+](=O)[O-])cc2)cc1 [NPN-1, HD-Lys(Tos)LeuLysPNA.2HBr] (H-[dK](Tos)-Leu-Lys-pNA)	63.600 × 10^7	2.937	0 O.D.	0.457 O.D.	0.006 O.D.	0.003 O.D.	0.001 O.D.	–	–	–	–	–	–	–	–	–
NCCCC[C@H](NC(=O)[C@H](Cc1ccccc1)NC(=O)[C@H](N)CCC(=O)OCCc1ccccc1)C(=O)Nc1ccc([N+](=O)[O-])cc1 [NPN-8]	28.542 × 10^7	8.019	0 O.D.	0.181 O.D.	0.014 O.D.	0.005 O.D.	0.003 O.D.	–	–	–	–	–	–	–	–	–
NCCCC[C@H](NC(=O)[C@H](Cc1ccccc1)NC(=O)[C@H](N)CCCCNS(=O)(=O)c1ccccc1)C(=O)Nc1ccc(O)c(C(=O)O)c1 [NPC-15]	–	–	–	–	–	–	–	37.927 × 10^-7	64.180	0 O.D.	0.480 O.D.	0.010 O.D.	0.002 O.D.	0 O.D.	–	–
NCCCC[C@H](NC(=O)[C@H](Cc1ccccc1)NC(=O)[C@H](N)CCC(=O)OC1CCCCC1)C(=O)Nc1ccc([N+](=O)[O-])cc1 [NPN-3, HD-Glu(CHN)PheLysPNA.2HBr] (HELM PEPTIDE1{[dE].F.K.[O=[N+]([O-])c1ccc(N[*:1])cc1]}|CHEM1{[C1CCC(O[*:1])CC1]}$PEPTIDE1,CHEM1,1:R3-1:R1$$$V2.0)	65.287 × 10^7	17.726	0 O.D.	0.466 O.D.	0.009 O.D.	0.003 O.D.	0.001 O.D.	–	–	–	–	–	–	–	–	–
NCCCC[C@H](NC(=O)[C@H](Cc1ccccc1)NC(=O)[C@H](N)CCCCNS(=O)(=O)c1cccc2ccccc12)C(=O)Nc1ccc(O)c(C(=O)O)c1 [NPC-17]	–	–	–	–	–	–	–	15.803 × 10^-7	23.874	0 O.D.	0.192 O.D.	0.002 O.D.	0 O.D.	0 O.D.	–	–
Cc1ccc(CCNC(=O)CC[C@@H](N)C(=O)N[C@@H](Cc2ccccc2)C(=O)N[C@@H](CCCCN)C(=O)Nc2ccc(O)c(C(=O)O)c2)cc1 [NPC-24]	–	–	–	–	–	–	–	21.637 × 10^-7	46.748	0 O.D.	0.279 O.D.	0.009 O.D.	0.005 O.D.	0.004 O.D.	–	–
CC(C)OC(=O)C[C@@H](N)C(=O)N[C@@H](Cc1ccccc1)C(=O)N[C@@H](CCCCN)C(=O)Nc1ccc(O)c(C(=O)O)c1 [NPC-21]	–	–	–	–	–	–	–	6.802 × 10^-7	17.414	0 O.D.	0.093 O.D.	0.010 O.D.	0.003 O.D.	0.004 O.D.	–	–
NCCCC[C@H](NC(=O)[C@H](Cc1ccccc1)NC(=O)[C@H](N)CCC(=O)NCCCCc1ccccc1)C(=O)Nc1ccc([N+](=O)[O-])cc1 [NPN-6]	28.209 × 10^7	5.427	0 O.D.	0.646 O.D.	0.018 O.D.	0.003 O.D.	0.012 O.D.	–	–	–	–	–	–	–	–	–
CCCC(=O)NCCCC[C@@H](N)C(=O)N[C@@H](Cc1ccccc1)C(=O)N[C@@H](CCCCN)C(=O)Nc1ccc(O)c(C(=O)O)c1 [NPC-19]	–	–	–	–	–	–	–	8.266 × 10^-7	31.117	0.001 O.D.	0.118 O.D.	0.004 O.D.	0.002 O.D.	0.001 O.D.	–	–
NCCCC[C@H](NC(=O)[C@H](Cc1ccccc1)NC(=O)[C@H](N)CCCCNC(=O)c1ccc2ccccc2c1)C(=O)Nc1ccc(O)c(C(=O)O)c1 [NPC-9, HD-Lys(NaC)PheLysCHA.2HCl]	–	–	–	–	–	–	–	13.827 × 10^-7	38.270	0 O.D.	0.120 O.D.	0.027 O.D.	0.001 O.D.	0 O.D.	–	–
NCCCC[C@H](NC(=O)[C@H](Cc1ccccc1)NC(=O)[C@H](N)CCCCNC(=O)c1ccccc1)C(=O)Nc1ccc(O)c(C(=O)O)c1 [NPC-14]	–	–	–	–	–	–	–	33.794 × 10^-7	91.036	0 O.D.	0.417 O.D.	0.016 O.D.	0.002 O.D.	0.001 O.D.	–	–
NCCCC[C@H](NC(=O)[C@H](Cc1ccccc1)NC(=O)[C@H](N)CCC(=O)NCCc1ccccc1)C(=O)Nc1ccc(O)c(C(=O)O)c1 [NPC-23]	–	–	–	–	–	–	–	18.963 × 10^-7	43.045	0 O.D.	0.223 O.D.	0.009 O.D.	0.005 O.D.	0.004 O.D.	–	–
Cc1ccc(S(=O)(=O)NCCCC[C@@H](N)C(=O)N[C@@H](Cc2ccccc2)C(=O)N[C@@H](CCCCN)C(=O)Nc2ccc([N+](=O)[O-])cc2)cc1 [NPN-2, H-D-Lys(ToS)-Phe-Lys PNA.2HBr] (H-[dK](Tos)-Phe-Lys-pNA)	47.968 × 10^7	26.517	0 O.D.	0.383 O.D.	0.004 O.D.	0.003 O.D.	0.001 O.D.	–	–	–	–	–	–	–	4.8 × 10^-6 mole/min/Cu	303.595 × 10^-3
Cc1ccc(S(=O)(=O)Oc2ccc(C[C@@H](N)C(=O)N[C@@H](Cc3ccccc3)C(=O)N[C@@H](CCCCN)C(=O)Nc3ccc(O)c(C(=O)O)c3)cc2)cc1 [NPC-11, HD-Tyr(Tos)PheLysCHA.2HCl]	–	–	–	–	–	–	–	17.018 × 10^-7	99.532	0.001 O.D.	0.277 O.D.	0.012 O.D.	0.003 O.D.	0.003 O.D.	–	–
CC(=O)NCCCC[C@@H](N)C(=O)N[C@@H](Cc1ccccc1)C(=O)N[C@@H](CCCCN)C(=O)Nc1ccc(O)c(C(=O)O)c1 [NPC-4, HD-Lys(AC)PheLysCHA.2HCl]	–	–	–	–	–	–	–	10.940 × 10^-7	39.351	0.001 O.D.	0.144 O.D.	0.006 O.D.	0.002 O.D.	0 O.D.	–	–
NCCCC[C@H](NC(=O)[C@H](Cc1ccccc1)NC(=O)[C@H](N)CCCCNS(=O)(=O)c1ccc2ccccc2c1)C(=O)Nc1ccc([N+](=O)[O-])cc1 [NPN-11]	23.895 × 10^7	11.660	0 O.D.	0.171 O.D.	0.001 O.D.	0.005 O.D.	0.001 O.D.	–	–	–	–	–	–	–	–	–

Source: patent US4605614A, “Method for measuring plasmin” (Nitto Boseki Co., Ltd., priority 1981, dated 1986)
